US6916933B2, “4-pyridinyl-n-acyl-l-phenylalanines” (Hoffman-La Roche Inc., priority 1999, dated 2005)

Molecular target: T1, alpha4-beta7 on RPMI 8866 cells binding to MadCAM (Homo sapiens, UniProt P13612+P26010)
T1 construct: endogenous in cells; host or cells: RPMI 8866 cells
T1 sequence (P13612 34-1032): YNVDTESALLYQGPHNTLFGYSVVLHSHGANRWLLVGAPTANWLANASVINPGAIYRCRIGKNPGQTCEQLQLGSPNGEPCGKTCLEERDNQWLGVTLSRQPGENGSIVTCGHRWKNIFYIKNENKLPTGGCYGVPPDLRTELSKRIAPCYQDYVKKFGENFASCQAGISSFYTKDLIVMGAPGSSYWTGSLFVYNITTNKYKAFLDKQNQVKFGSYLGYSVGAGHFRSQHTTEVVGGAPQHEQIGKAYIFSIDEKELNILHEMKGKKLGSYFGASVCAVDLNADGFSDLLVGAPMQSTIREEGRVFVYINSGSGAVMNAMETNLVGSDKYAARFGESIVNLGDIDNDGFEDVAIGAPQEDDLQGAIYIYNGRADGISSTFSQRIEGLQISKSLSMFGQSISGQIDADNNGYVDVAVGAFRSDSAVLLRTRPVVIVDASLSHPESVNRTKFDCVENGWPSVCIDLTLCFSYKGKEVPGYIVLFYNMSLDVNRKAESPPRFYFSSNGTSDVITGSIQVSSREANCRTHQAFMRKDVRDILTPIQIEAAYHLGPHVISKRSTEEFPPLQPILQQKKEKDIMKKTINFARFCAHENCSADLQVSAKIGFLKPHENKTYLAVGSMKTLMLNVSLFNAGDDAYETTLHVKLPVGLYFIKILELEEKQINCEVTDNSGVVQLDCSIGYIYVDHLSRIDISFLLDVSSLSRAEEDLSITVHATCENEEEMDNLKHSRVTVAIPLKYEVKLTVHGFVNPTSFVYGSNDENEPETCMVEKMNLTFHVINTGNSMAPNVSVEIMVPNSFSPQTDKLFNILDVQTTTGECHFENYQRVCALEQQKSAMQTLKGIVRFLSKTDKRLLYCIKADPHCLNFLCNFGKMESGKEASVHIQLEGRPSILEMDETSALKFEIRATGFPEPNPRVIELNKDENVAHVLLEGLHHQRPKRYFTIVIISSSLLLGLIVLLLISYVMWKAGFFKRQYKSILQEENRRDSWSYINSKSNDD
T1 sequence (P26010 20-798): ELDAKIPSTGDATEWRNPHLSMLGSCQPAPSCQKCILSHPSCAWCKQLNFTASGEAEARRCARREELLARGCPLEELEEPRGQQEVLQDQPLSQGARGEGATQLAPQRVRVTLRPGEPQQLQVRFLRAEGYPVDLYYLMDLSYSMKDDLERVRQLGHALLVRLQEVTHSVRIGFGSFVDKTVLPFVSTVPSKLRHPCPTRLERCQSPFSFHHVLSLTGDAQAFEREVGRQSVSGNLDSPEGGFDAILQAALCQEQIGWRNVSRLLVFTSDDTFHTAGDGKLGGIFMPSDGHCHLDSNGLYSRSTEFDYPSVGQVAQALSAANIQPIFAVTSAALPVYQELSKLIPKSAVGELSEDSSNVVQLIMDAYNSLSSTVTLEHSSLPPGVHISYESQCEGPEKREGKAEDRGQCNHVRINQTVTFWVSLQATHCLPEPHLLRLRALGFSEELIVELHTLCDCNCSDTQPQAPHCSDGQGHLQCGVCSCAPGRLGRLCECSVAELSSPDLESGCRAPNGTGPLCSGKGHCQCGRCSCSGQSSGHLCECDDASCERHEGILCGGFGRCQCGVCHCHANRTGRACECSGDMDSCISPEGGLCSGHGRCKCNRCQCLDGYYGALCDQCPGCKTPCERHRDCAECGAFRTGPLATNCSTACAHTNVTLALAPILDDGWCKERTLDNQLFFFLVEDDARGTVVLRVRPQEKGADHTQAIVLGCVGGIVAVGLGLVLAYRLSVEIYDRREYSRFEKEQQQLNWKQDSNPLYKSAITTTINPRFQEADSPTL
Assay: Alpha4-Beta7 Assay (MadCAM/RPMI 8866 cell adhesion)
Assay type: cell-based
Conditions: calcein labeled RPMI 8866 cells, MadCAM coated plates
Method: Alpha4-Beta7 Assay Protocol
Two weeks to one day prior to the assay, Nunc high-binding F96 Maxisorp immuno plates, #442404 or #439454, were coated with 25 ng/well (0.25 μg/ml) MadCAM in a volume of 100 μl/well. The plates were covered with sealer and wrapped in saran wrap followed by incubation in the refrigerator for at least 24 hours. The coating buffer employed was: 10 mM carbonate/bicarbonate buffer made up from: 0.8 g/L sodium carbonate and 1.55 g/L sodium bicarbonate adjusted to pH 9.6 with 1 N HCl.
Assay buffers consisted of the following: • Wash Buffer: 0.05% Tween 20 in PBS • Blocking Buffer: 1% Nonfat Dry Milk in PBS • Labeling Buffer: PBS • Cell Buffer: RPMI 1640 medium (no additives) • Binding Buffer: 1.5 mM CaCl2 • 0.5 mM MnCl2 • 50 mM TRIS-HCl; add NaOH dropwise to pH 7.5 • Bring to volume in H2O • Adjust to pH 7.5 • Dilution Buffer: 4% DMSO in Binding Buffer
Plates were washed 2× with wash buffer and then blocked at room temperature for at least 1 hour with Blocking Buffer. Sealed plates were sometimes blocked overnight in the refrigerator. Plates were then washed with PBS and hand blotted dry. Remaining liquid was aspirated from the wells.
Sufficient RPMI 8866 cells were removed from stock for assay (2×10^6 cells/ml×10 ml/plate×number of plates) and placed in a centrifuge tube. The tubes were filled to volume with PBS and were spun at 200×G for 8 minutes. The buffer was poured off and the cells were resuspended to 10×10^6/ml in PBS and a stock solution of calcein in DMSO (5 mg/mL) was added at 5 μl/ml of cell suspension. The suspension was incubated for 30 minutes at 37° C. in dark. The cells were then washed with PBS. The PBS was poured off and the cells resuspended in cell buffer at a concentration of 2×10^6 cells/mL for plating in the assay.
Stock solution of test compounds at 25× first dilution desired in 100% DMSO were prepared. First dilutions for the standard, as well as test compounds, were 1:25 into straight Binding Buffer, while the remaining serial dilutions were into Dilution Buffer (Binding Buffer/4% DMSO). Stock concentrations and dilutions of compounds for screening were determined by anticipated activity.
For the assay, 129 μl Binding Buffer was plated into first row of wells and 100 μl Dilution Buffer was plated into remaining wells. A 5.4 μl aliquot of each compound was pipetted into appropriate, labeled wells, in triplicate. The compounds were next diluted down the plate (34 μl+100 μl=>4-fold dilution). For controls, 100 μl of Dilution Buffer+100 μl Cell Buffer were plated into the nonspecific background wells (no cells, no compound) and 100 μl Dilution Buffer+100 μl cells were plated into the total binding wells (no compound=100% binding). Labeled cells at 2×10^6 cells/ml, 100μl/well (=2×10^5 cells/well) were added to each well containing compound. The plates were sealed and incubated in the dark for 45 minutes at room temperature. Following incubation, unbound cells were removed by adding 150 μl PBS/well. The plates were inverted, blotted onto paper towels and washed by gently adding 200 μl PBS to wells and blotting again. Remaining buffer was carefully aspirated from the wells. A final 100 μl PBS was added to each well.
The plates were then read for fluorescence intensity on a Cytofluor 2300 (Millipore) fluorecence measurement system (excitation=485 nm, emission=530 nm). IC50s of each compound were determined by linear regression analysis.

Structure (SMILES)	IC50
Cc1ccn(C)c(=O)c1-c1ccc(C[C@H](NC(=O)c2c(Cl)cccc2Cl)C(=O)O)cc1 [Example 31, N-[(2,6-dichlorophenyl)carbonyl]-4-(1,4-dimethyl-2-oxo-3-pyridinyl)-L-phenylalanine]	< 10 µM
Cc1cccc(Cl)c1C(=O)N[C@@H](Cc1ccc(-c2c(C)ccn(C)c2=O)cc1)C(=O)O [Example 32, N-[(2-chloro-6-methylphenyl)carbonyl]-4-(1,4-dimethyl-2-oxo-3-pyridinyl)-L-phenylalanine]	< 10 µM
Cc1cccc(Cl)c1C(=O)N[C@@H](Cc1ccc(-c2cccn(C)c2=O)cc1)C(=O)O [Example 30, N-[(2-chloro-6-methylphenyl)carbonyl]-4-(1-methyl-2-oxo-3-pyridinyl)-L-phenylalanine]	< 10 µM

Further lines, results first:

IC50	Structure (SMILES)
< 10 µM	COCCC1(C(=O)N[C@@H](Cc2ccc(-c3c(C(F)(F)F)cc(C)n(C)c3=O)cc2)C(=O)O)CCCC1 [Example 37, N-[[1-(2-methoxyethyl)cyclopentyl]carbonyl]-4-[1,6-dimethyl-4-(trifluoromethyl)-2-oxo-3-pyridinyl]-L-phenylalanine]
< 10 µM	CCc1cccc(C)c1C(=O)N[C@@H](Cc1ccc(-c2c(C(F)(F)F)cc(C)n(C)c2=O)cc1)C(=O)O [Example 34, N-[(2-ethyl-6-methylphenyl)carbonyl]-4-[1,6-dimethyl-4-(trifluoromethyl)-2-oxo-3-pyridinyl]-L-phenylalanine]
< 5 µM	Cc1cccc(C(C)C)c1C(=O)N[C@@H](Cc1ccc(-c2c(C(F)(F)F)cc(C)n(C)c2=O)cc1)C(=O)O [Example 35, N-[(2-(1-methylethyl)-6-methylphenyl)carbonyl]-4-[1,6-dimethyl-4-(trifluoromethyl)-2-oxo-3-pyridinyl]-L-phenylalanine]
< 10 µM	Cc1cccc(Cl)c1C(=O)N[C@@H](Cc1ccc(-c2c(C(F)(F)F)cc(C)n(C)c2=O)cc1)C(=O)O [Example 36, N-[(2-chloro-6-methylphenyl)carbonyl]-4-[1,6-dimethyl-4-(trifluoromethyl)-2-oxo-3-pyridinyl]-L-phenylalanine]
< 0.1 µM	Cc1cc(C(F)(F)F)c(-c2ccc(C[C@H](NC(=O)c3c(Cl)cccc3Cl)C(=O)O)cc2)c(=O)n1C [Example 33, N-[(2,6-dichlorophenyl)carbonyl]-4-[1,6-dimethyl-4-(trifluoromethyl)-2-oxo-3-pyridinyl]-L-phenylalanine]
